Results: patent US9316633B2, “Methods for identifying inhibitors of solute transporters” (The Regents of the University of California, priority 2006, dated 2016)

What follows are compounds tested against T1, UT-B (Homo sapiens, UniProt Q13336) (assay: RBC lysis assay, human RBCs loaded with acetamide). Details: Table 5, phthalazinamines; UT-B inhibitory potency.
T1 construct: the indicator cells are red blood cells that endogenously express the UT-B urea transporter; endogenous in cells; host or cells: human red blood cells (whole venous blood, single donor)
T1 sequence (Q13336 1-389): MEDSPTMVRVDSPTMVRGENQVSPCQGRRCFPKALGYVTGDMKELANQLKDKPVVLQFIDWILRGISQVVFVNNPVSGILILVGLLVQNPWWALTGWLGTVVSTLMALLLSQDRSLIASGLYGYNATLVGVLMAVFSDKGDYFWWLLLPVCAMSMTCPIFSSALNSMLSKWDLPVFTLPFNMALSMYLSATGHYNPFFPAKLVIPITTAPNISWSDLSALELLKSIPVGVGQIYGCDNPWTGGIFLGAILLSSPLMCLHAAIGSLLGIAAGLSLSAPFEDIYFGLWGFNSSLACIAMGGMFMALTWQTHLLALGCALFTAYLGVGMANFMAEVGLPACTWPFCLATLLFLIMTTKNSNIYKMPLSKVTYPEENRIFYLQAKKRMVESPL
Format: cell-based
COc1ccc(Nc2nnc(-c3ccc(C(N)=O)cc3)c3ccccc23)cc1 [ureainh-301, 4-(4-(4-methoxyphenylamino)phthalazin-1-yl)benzamide] was tested, and the EC50 was 100 nM. CN(C)C(=O)c1ccc(Nc2nnc(-c3ccc(C(N)=O)cc3)c3ccccc23)cc1 [ureainh-303, 4-(4-(4-carbamoylphenyl)phthalazin-1-ylamino)-N,N-dimethylbenzamide] was tested, and the EC50 was 200 nM. CNC(=O)c1ccc(Nc2nnc(-c3ccc(C(N)=O)cc3)c3ccccc23)cc1 [ureainh-304, 4-(4-(4-carbamoylphenyl)phthalazin-1-ylamino)-N-methylbenzamide] showed an EC50 of 600 nM. With NC(=O)c1ccc(-c2nnc(Nc3ccc(O)cc3)c3ccccc23)cc1 [ureainh-306, 4-(4-(4-hydroxyphenylamino)phthalazin-1-yl)benzamide] the EC50 was 2000 nM. For NC(=O)c1ccc(-c2nnc(Nc3ccc(S(N)(=O)=O)cc3)c3ccccc23)cc1 [ureainh-307, 4-(4-(4-sulfamoylphenylamino)phthalazin-1-yl)benzamide], the EC50 was 3000 nM. In the case of CCN(CC)C(=O)c1ccc(-c2nnc(Nc3ccc(C(=O)NC)cc3)c3ccccc23)cc1 [ureainh-308, N,N-diethyl-4-(4-(4-(methylcarbamoyl)phenylamino)phthalazin-1-yl)benzamide], the EC50 is reported as 2000 nM. Work on CCN(CC)C(=O)c1ccc(-c2nnc(Nc3ccc(O)cc3)c3ccccc23)cc1 [ureainh-309, N,N-diethyl-4-(4-(4-hydroxyphenylamino)phthalazin-1-yl)benzamide] yielded an EC50 of 5000 nM. CCN(CC)C(=O)c1ccc(-c2nnc(Nc3ccc(C(=O)N(C)C)cc3)c3ccccc23)cc1 [ureainh-310, 4-(4-(4-(diethylcarbamoyl)phenyl)phthalazin-1-ylamino)-N,N-dimethylbenzamide] gave an EC50 of 3000 nM. Compound CNC(=O)COc1ccc(Nc2nnc(-c3ccc(C(=O)NCCO)cc3)c3ccccc23)cc1 [ureainh-311, N-(2-hydroxyethyl)-4-(4-(4-(2-(methylamino)-2-oxoethoxy)phenylamino)phthalazin-1-yl)benzamide] has an EC50 of 800 nM. With COc1ccc(-c2nnc(Nc3ccc(OCC(N)=O)cc3)c3ccccc23)cc1 [ureainh-312, 2-(4-(4-(4-methoxyphenyl)phthalazin-1-ylamino)phenoxy)acetamide] the EC50 was 1000 nM. In the case of COc1ccc(-c2nnc(Nc3ccc(-c4nc5ccccc5[nH]4)cc3)c3ccccc23)cc1 [ureainh-313, N-(4-(1H-benzo[d]imidazol-2-yl)phenyl)-4-(4-methoxyphenyl) phthalazin-1-amine], the EC50 is reported as 10000 nM. Cc1ccc(-c2nnc(Nc3ccc(OCC(N)=O)cc3)c3ccccc23)cc1 [ureainh-314, 2-(4-(4-p-tolylphthalazin-1-ylamino)phenoxy) acetamide] gave an EC50 of 2000 nM. In the case of CNC(=O)COc1ccc(Nc2nnc(-c3ccc(C)cc3)c3ccccc23)cc1 [ureainh-315, N-methyl-2-(4-(4-p-tolylphthalazin-1-ylamino)phenoxy)acetamide], the EC50 is reported as 2000 nM. For COc1ccc(Nc2nnc(-c3ccc(O)cc3)c3ccccc23)cc1 [ureainh-316, 4-(4-(4-methoxyphenylamino)phthalazin-1-yl)phenol], the EC50 was 2000 nM. Compound CC(=O)Nc1ccc(Nc2nnc(-c3ccc(O)cc3)c3ccccc23)cc1 [ureainh-317, N-(4-(4-(4-hydroxyphenyl)phthalazin-1-ylamino)phenyl)acetamide] has an EC50 of 3000 nM. NC(=O)COc1ccc(Nc2nnc(-c3ccccc3)c3ccccc23)cc1 [ureainh-318, 2-(4-(4-phenylphthalazin-1-ylamino)phenoxy) acetamide] gave an EC50 of 2000 nM. In the case of CNC(=O)COc1ccc(Nc2nnc(-c3ccccc3)c3ccccc23)cc1 [ureainh-319, N-methyl-2-(4-(4-phenylphthalazin-1-ylamino)phenoxy)acetamide], the EC50 is reported as 3000 nM. COc1ccc(Nc2nnc(-c3ccccc3)c3ccccc23)cc1 [ureainh-320, N-(4-methoxyphenyl)-4-phenylphthalazin-1-amine] gave an EC50 of 4000 nM. With Cc1ccc(-c2nnc(Nc3ccc(C(N)=O)cc3)c3ccccc23)cc1S(=O)(=O)N(C)C [ureainh-321, 4-(4-(3-(N,N-dimethylsulfamoyl)-4-methylphenyl)phthalazin-1-ylamino) benzamide] the EC50 was 1000 nM. For Cc1ccc(-c2nnc(Nc3ccc(OCC(N)=O)cc3)c3ccccc23)cc1S(=O)(=O)N(C)C [ureainh-322, 2-(4-(4-(3-(N,N-dimethylsulfamoyl)-4-methylphenyl)phthalazin-1-ylamino)phenoxy)acetamide], the EC50 was 2000 nM. Compound COC(=O)c1ccc(Nc2nnc(-c3ccc(C)c(S(=O)(=O)NCCO)c3)c3ccccc23)cc1 [ureainh-323, methyl 4-(4-(3-(N-(2-hydroxyethyl)sulfamoyl)-4-methylphenyl)phthalazin-1-ylamino) benzoate] has an EC50 of 2000 nM. For Cc1ccc(-c2nnc(Nc3ccc(C(N)=O)cc3)c3ccccc23)cc1S(=O)(=O)NCCO [ureainh-324, 4-(4-(3-(N-(2-hydroxyethyl)sulfamoyl)-4-methylphenyl)phthalazin-1-ylamino) benzamide], the EC50 was 5000 nM. Work on CNS(=O)(=O)c1cc(-c2nnc(Nc3ccc(OCC(N)=O)cc3)c3ccccc23)ccc1C [ureainh-325, 2-(4-(4-(4-methyl-3-(N-methylsulfamoyl)phenyl)phthalazin-1-ylamino)phenoxy)acetamide] yielded an EC50 of 2000 nM. Compound CNC(=O)COc1ccc(Nc2nnc(-c3ccc(C)c(S(=O)(=O)NC)c3)c3ccccc23)cc1 [ureainh-326, N-methyl-2-(4-(4-(4-methyl-3-(N-methylsulfamoyl)phenyl)phthalazin-1-ylamino)phenoxy) acetamide] has an EC50 of 2000 nM. Cc1ccc(-c2nnc(Nc3ccc(O)cc3)c3ccccc23)cc1S(=O)(=O)N1CCOCC1 [ureainh-328, 4-(4-(4-methyl-3-(morpholinosulfonyl)phenyl)phthalazin-1-ylamino)phenol] gave an EC50 of 3000 nM. For Cc1ccc(-c2nnc(Nc3ccc(C(N)=O)cc3)c3ccccc23)cc1S(N)(=O)=O [ureainh-329, 4-(4-(4-methyl-3-sulfamoylphenyl)phthalazin-1-ylamino) benzamide], the EC50 was 5000 nM. CNC(=O)COc1ccc(Nc2nnc(-c3ccc(C)c(S(N)(=O)=O)c3)c3ccccc23)cc1 [ureainh-330, N-methyl-2-(4-(4-(4-methyl-3-sulfamoylphenyl)phthalazin-1-ylamino)phenoxy)acetamide] showed an EC50 of 10000 nM. Cc1ccc(-c2nnc(Nc3ccc(O)cc3)c3ccccc23)cc1S(=O)(=O)NC(C)(C)CO [ureainh-331, N-(1-hydroxy-2-methylpropan-2-yl)-5-(4-(4-hydroxyphenylamino)phthalazin-1-yl)-2-methylbenzenesulfonamide] showed an EC50 of 9000 nM. COc1ccc(-c2nnc(Oc3ccccc3)c3ccccc23)cc1 [ureainh-332, 1-(4-methoxyphenyl)-4-phenoxyphthalazine] showed an EC50 of 2000 nM. For Cc1ccc(-c2nnc(Oc3ccccc3)c3ccccc23)cc1 [ureainh-333, 1-phenoxy-4-p-tolylphthalazine], the EC50 was 3000 nM.

Same assay, conditions: Table 7, aminobenzimidazoles; UT-B inhibitory potency
Compound CCCn1c(NCc2cc(Cl)ccc2O)nc2ccccc21 [ureainh-401, 4-chloro-2-((1-propyl-1H-benzo[d]imidazol-2-ylamino)methyl)phenol] has an EC50 of 300 nM. With CCn1c(NCc2cc(Cl)ccc2O)nc2ccccc21 [ureainh-402, 4-chloro-2-((1-ethyl-1H-benzo[d]imidazol-2-ylamino)methyl)phenol] the EC50 was 400 nM. CC(C)n1c(NCc2cc(Cl)ccc2O)nc2ccccc21 [ureainh-403, 4-chloro-2-((1-isopropyl-1H-benzo[d]imidazol-2-ylamino)methyl)phenol] gave an EC50 of 5000 nM. CC(C)n1c(NCc2cc(Br)ccc2O)nc2ccccc21 [ureainh-405, 4-bromo-2-((1-isopropyl-1H-benzo[d]imidazol-2-ylamino)methyl)phenol] was tested, and the EC50 was 400 nM. C=CCn1c(NCc2cc(Br)ccc2O)nc2ccccc21 [ureainh-406, 2-((1-allyl-1H-benzo[d]imidazol-2-ylamino)methyl)-4-bromophenol] was tested, and the EC50 was 1000 nM. CCN(CC)CCn1c(NCc2ccccc2O)nc2ccccc21 [ureainh-407, 2-((1-(2-(diethylamino)ethyl)-1H-benzo[d]imidazol-2-ylamino)methyl)phenol] showed an EC50 of 800 nM. Oc1ccccc1CNc1nc2ccccc2n1CCN1CCCCC1 [ureainh-408, 2-((1-(2-(piperidin-1-yl)ethyl)-1H-benzo[d]imidazol-2-ylamino)methyl)phenol] gave an EC50 of 900 nM. Oc1ccccc1CNc1nc2ccccc2n1CCN1CCOCC1 [ureainh-412, 2-((1-(2-morpholinoethyl)-1H-benzo[d]imidazol-2-ylamino)methyl)phenol] showed an EC50 of 6000 nM. For CCCn1c(NCc2cc(C)ccc2O)nc2ccccc21 [ureainh-414, 4-methyl-2-((1-propyl-1H-benzo[d]imidazol-2-ylamino)methyl)phenol], the EC50 was 1000 nM. Cc1ccc(O)c(CNc2nc3ccccc3n2C(C)C)c1 [ureainh-415, 2-((1-isopropyl-1H-benzo[d]imidazol-2-ylamino)methyl)-4-methylphenol] showed an EC50 of 1000 nM. For CCn1c(NCc2cc(C)ccc2O)nc2ccccc21 [ureainh-416, 2-((1-ethyl-1H-benzo[d]imidazol-2-ylamino)methyl)-4-methylphenol], the EC50 was 1000 nM. Compound CCCCn1c(NCc2cc(C)ccc2O)nc2ccccc21 [ureainh-417, 2-((1-butyl-1H-benzo[d]imidazol-2-ylamino)methyl)-4-methylphenol] has an EC50 of 2000 nM. In the case of CCCn1c(NCc2cc(OC)ccc2O)nc2ccccc21 [ureainh-418, 4-methoxy-2-((1-propyl-1H-benzo[d]imidazol-2-ylamino)methyl)phenol], the EC50 is reported as 6000 nM.
